The text below walks through data of patent US10906890B2, “Triazole phenyl compounds as agonists of the APJ receptor” (AMGEN INC., priority 2016, dated 2021).

Molecules are shown by their SMILES.

The target of one assay is human APJ receptor (Homo sapiens (Human), UniProt P35414). Briefly: [35S]GTPγS binding assay on membranes from CHO cells stably expressing human APJ receptor. It counts as biochemical. The following applies: means of several independent experiments, read-out: Activity hAPJ SPA EC50 IP. The essentials: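 Membranes from CHO cells stably expressing FLAG-tagged human APJ incubated with [35S]GTPγS in buffer with optimized GDP, MgCl2 and NaCl levels, 90 min at RT. Signal read by imaging; EC50 by non-linear regression from means of several independent experiments.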
human APJ receptor, sequence (P35414 whole entry): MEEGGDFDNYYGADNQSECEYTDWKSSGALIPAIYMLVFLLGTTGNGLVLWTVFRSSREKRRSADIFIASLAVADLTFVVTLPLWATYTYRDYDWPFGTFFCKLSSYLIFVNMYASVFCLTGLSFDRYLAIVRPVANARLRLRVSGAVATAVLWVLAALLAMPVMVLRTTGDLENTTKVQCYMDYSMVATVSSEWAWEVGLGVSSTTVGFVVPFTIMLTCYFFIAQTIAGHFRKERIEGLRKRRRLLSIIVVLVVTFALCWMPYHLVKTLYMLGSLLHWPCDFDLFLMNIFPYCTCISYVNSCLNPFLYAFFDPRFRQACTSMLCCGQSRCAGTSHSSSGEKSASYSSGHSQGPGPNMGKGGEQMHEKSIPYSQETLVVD
Usually EC50 stands for the midpoint of the concentration-response curve. As to `COc1ncnc(OC)c1-n1c(NS(=O)(=O)[C@@H](C)[C@H](OC)c2ncc(C)cn2)nnc1-c1cccc(Cl)c1` [Example 3.0, (1R,25)-N-(5-(3-chlorophenyl)-4-(4,6-dimethoxypyrimidin-5-yl)-4H-1,2,4-triazol-3-yl)-1-methoxy-1-(5-methylpyrimidin-2-yl)propane-2-sulfonamide], the concentration for a half-maximal effect (EC50) came out at 0.0053 µM. Same read-out and setting: the result for `CO[C@H](c1ncc(C)cn1)[C@H](C)S(=O)(=O)Nc1nnc(-c2ccccc2)n1-c1c(F)cccc1F` [Example 41.0, (1R,2S)-N-(4-(2,6-difluorophenyl)-5-phenyl-4H-1,2,4-triazol-3-yl)-1-methoxy-1-(5-methyl-2-pyrimidinyl)-2-propanesulfonamide] reads 0.0047 µM. With `Cc1cnc([C@H](OC(C)C)[C@H](C)S(=O)(=O)Nc2nnc(-c3ccccc3)n2C2(C)CC2)nc1` [Example 99.0], the EC50 came out at 0.008 µM. As for `COc1cccc(OC)c1-n1c(NS(=O)(=O)[C@@H](C)[C@H](OC)c2ncc(C)cn2)nnc1-c1ccc(C(C)(C)C)cc1` [Example 65.0, (1R,2S)—N-(5-(4-tert-Butylphenyl)-4-(2,6-dimethoxyphenyl)-4H-1,2,4-triazol-3-yl)-1-methoxy-1-(5-methyl-2-pyrimidinyl)-2-propanesulfonamide], the EC50 was found to be 0.23 µM. For the molecule `COc1cccc(OC)c1-n1c(NS(=O)(=O)[C@H]2C[C@@H](O)CN(c3ncc(F)cn3)C2)nnc1-c1ccccc1` (single isomer, unassigned) [Example 57.0, (3R,5S)-N-(4-(2,6-dimethoxyphenyl)-5-phenyl-4H-1,2,4-triazol-3-yl)-1-(5-fluoro-2-pyrimidinyl)-5-hydroxy-3-piperidinesulfonamide or (3S,5R)-N-(4-(2,6-dimethoxyphenyl)-5-phenyl-4H-1,2,4-triazol-3-yl)-1-(5-fluoro-2-pyrimidinyl)-5-hydroxy-3-piperidinesulfonamide], the concentration giving a half-maximal response (EC50) was 0.0014 µM. Same read-out and setting: the result for `COc1ncnc(OC)c1-n1c(NS(=O)(=O)[C@@H](C)Cc2ncc(F)cn2)nnc1-c1ccccc1` (single isomer, unassigned) [Example 9.0, (2S)-N-(4-(4,6-dimethoxy-5-pyrimidinyl)-5-phenyl-4H-1,2,4-triazol-3-yl)-1-(5-fluoro-2-pyrimidinyl)-2-propanesulfonamide or (2R)-N-(4-(4,6-dimethoxy-5-pyrimidinyl)-5-phenyl-4H-1,2,4-triazol-3-yl)-1-(5-fluoro-2-pyrimidinyl)-2-propanesulfonamide] reads 0.04 µM; that for `COc1ncnc(OC)c1-n1c(NS(=O)(=O)[C@@H](C)[C@H](O)c2ncc(C)cn2)nnc1-c1ccccc1` [Example 20.0, (1R,2S)-N-(4-(4,6-dimethoxy-5-pyrimidinyl)-5-phenyl-4H-1,2,4-triazol-3-yl)-1-hydroxy-1-(5-methyl-2-pyrimidinyl)-2-propanesulfonamide], 0.0053 µM. Consider `COc1ccnc(OC)c1-n1c(NS(=O)(=O)[C@@H](C)[C@H](OC)c2ncc(C)cn2)nnc1-c1ccccc1` (single isomer, unassigned) [Example 24.0, (1R,2S,P)-N-(4-(2,4-dimethoxy-3-pyridinyl)-5-phenyl-4H-1,2,4-triazol-3-yl)-1-methoxy-1-(5-methyl-2-pyrimidinyl)-2-propanesulfonamide or (1R,2S,M)-N-(4-(2,4-dimethoxy-3-pyridinyl)-5-phenyl-4H-1,2,4-triazol-3-yl)-1-methoxy-1-(5-methyl-2-pyrimidinyl)-2-propanesulfonamide], for which the EC50 was determined as 0.00027 µM.

`COc1cccc(OC)c1-n1c(NS(=O)(=O)[C@@H](C)[C@H](OC)c2ncc(C)cn2)nnc1-c1cccc2cn(C)nc12` [Example 92.0]: the EC50 was 0.06 µM. On to `COc1cccc(OC)c1-n1c(NS(=O)(=O)[C@@H](C)[C@H](OC)c2ncc(C)cn2)nnc1-c1cccc(Cl)c1` [Example 87.0, (1R,2S)-N-(5-(3-chlorophenyl)-4-(2,6-dimethoxyphenyl)-4H-1,2,4-triazol-3-yl)-1-methoxy-1-(5-methyl-2-pyrimidinyl)-2-propanesulfonamide], for which the EC50 stood at 0.00056 µM. Consider `COc1ncnc(OC)c1-n1c(NS(=O)(=O)[C@@H](C)Cc2ncc(F)cn2)nnc1-c1ccccc1` (single isomer, unassigned) [Example 11.0, (2S)-N-(4-(4,6-dimethoxy-5-pyrimidinyl)-5-phenyl-4H-1,2,4-triazol-3-yl)-1-(5-fluoro-2-pyrimidinyl)-2-propanesulfonamide or (2R)-N-(4-(4,6-dimethoxy-5-pyrimidinyl)-5-phenyl-4H-1,2,4-triazol-3-yl)-1-(5-fluoro-2-pyrimidinyl)-2-propanesulfonamide], for which the half-maximal effective concentration (EC50) worked out at 0.0064 µM. Consider `Cc1cnc([C@@H](C)[C@H](C)S(=O)(=O)Nc2nnc(-c3ccccc3)n2-c2c(F)cccc2F)nc1` [Example 40.0, (2S,3R)-N-(4-(2,6-difluorophenyl)-5-phenyl-4H-1,2,4-triazol-3-yl)-3-(5-methyl-2-pyrimidinyl)-2-butanesulfonamide], for which the EC50 stood at 0.0044 µM.

On to `COc1ncnc(OC)c1-n1c(NS(=O)(=O)[C@H]2CCCN(c3ncc(C)cn3)C2)nnc1-c1ccccc1` (single isomer, unassigned) [Example 29.0, (S)—N-(4-(4,6-Dimethoxypyrimidin-5-yl)-5-phenyl-4H-1,2,4-triazol-3-yl)-1-(5-methylpyrimidin-2-yl)piperidine-3-sulfonamide or (R)—N-(4-(4,6-dimethoxypyrimidin-5-yl)-5-phenyl-4H-1,2,4-triazol-3-yl)-1-(5-methylpyrimidin-2-yl)piperidine-3-sulfonamide], for which the EC50 worked out at 0.39 µM.

With `CO[C@H](c1ncc(Cl)cn1)[C@H](C)S(=O)(=O)Nc1nnc(-c2cccc3nn(C)cc23)n1C(C)C` [Example 116.0], the concentration for a half-maximal effect (EC50) was 0.22 µM. On the same count and under the same terms, the result for `COc1cccc(OC)c1-n1c(NS(=O)(=O)[C@@H](C)[C@H](OC)c2ncc(C)cn2)nnc1-c1ccc(Oc2ccccc2)cc1` [Example 82.0, (1R,2S)-N-(4-(2,6-dimethoxyphenyl)-5-(4-phenoxyphenyl)-4H-1,2,4-triazol-3-yl)-1-methoxy-1-(5-methyl-2-pyrimidinyl)-2-propanesulfonamide] reads greater than 4.2 µM; that for `Cc1cnc([C@@H](O[Si](C)(C)C(C)(C)C)[C@H](C)S(=O)(=O)Nc2nnc(-c3ccccc3)n2-c2c(F)cccc2F)nc1` [Example 44.0, (1R,2S)-1-((tert-butyl(dimethyl)silyl)oxy)-N-(4-(2,6-difluorophenyl)-5-phenyl-4H-1,2,4-triazol-3-yl)-1-(5-methyl-2-pyrimidinyl)-2-propanesulfonamide], 0.15 µM; that for `COc1ncnc(OC)c1-n1c(NS(=O)(=O)[C@H]2CCCN(c3ncc(F)cn3)C2)nnc1-c1ccccc1` (single isomer, unassigned) [Example 27.0, (3S)-N-(4-(4,6-dimethoxy-5-pyrimidinyl)-5-phenyl-4H-1,2,4-triazol-3-yl)-1-(5-fluoro-2-pyrimidinyl)-3-piperidinesulfonamide or (3R)-N-(4-(4,6-dimethoxy-5-pyrimidinyl)-5-phenyl-4H-1,2,4-triazol-3-yl)-1-(5-fluoro-2-pyrimidinyl)-3-piperidinesulfonamide], 0.032 µM.

`CO[C@H](c1ncc(Cl)cn1)[C@H](C)S(=O)(=O)Nc1nnc(-c2cccc(OC(F)F)c2)n1C1CC1` [Example 122.0, (1R,2S)-1-(5-Chloropyrimidin-2-yl)-N-(4-cyclopropyl-5-(3-(difluoromethoxy)phenyl)-4H-1,2,4-triazol-3-yl)-1-methoxypropane-2-sulfonamide]: the EC50 came out at 0.25 µM. For the molecule `COc1cccc(OC)c1-n1c(NS(=O)(=O)[C@@H](C)Cc2ncc(F)cn2)nnc1-c1ccccc1` (single isomer, unassigned) [Example 8.0, (2S)-N-(4-(2,6-dimethoxyphenyl)-5-phenyl-4H-1,2,4-triazol-3-yl)-1-(5-fluoro-2-pyrimidinyl)-2-propanesulfonamide or (2R)-N-(4-(2,6-dimethoxyphenyl)-5-phenyl-4H-1,2,4-triazol-3-yl)-1-(5-fluoro-2-pyrimidinyl)-2-propanesulfonamide], the EC50 was 0.015 µM.

On to `COc1cccc(OC)c1-n1c(NS(=O)(=O)[C@H]2CCCN(c3ncc(F)cn3)C2)nnc1-c1ccccc1` (single isomer, unassigned) [Example 22.0, (3S)—N-(4-(2,6-dimethoxyphenyl)-5-phenyl-4H-1,2,4-triazol-3-yl)-1-(5-fluoro-2-pyrimidinyl)-3-piperidinesulfonamide or (3R)—N-(4-(2,6-dimethoxyphenyl)-5-phenyl-4H-1,2,4-triazol-3-yl)-1-(5-fluoro-2-pyrimidinyl)-3-piperidinesulfonamide], for which the EC50 was 0.17 µM. In the case of `CO[C@H]1CCC[C@@H](OC)[C@@H]1n1c(NS(=O)(=O)[C@@H](C)[C@H](C)c2ncc(C)cn2)nnc1-c1ccccc1` [Example 33.0, (2S,3R)—N-(4-((1r,2R,6S)-2,6-Dimethoxycyclohexyl)-5-phenyl-4H-1,2,4-triazol-3-yl)-3-(5-methyl-2-pyrimidinyl)-2-butanesulfonamide], the EC50 is 0.23 µM.

As to `COc1ncnc(OC)c1-n1c(NS(=O)(=O)[C@@H](C)[C@H](C)c2ccc(Cl)cn2)nnc1-c1ccccc1` [Example 127.0], the EC50 was found to be 0.00096 µM.

Consider `Cc1cnc([C@@H](C)[C@H](C)S(=O)(=O)Nc2nnc(-c3cccc4nn(C)cc34)n2C2CCOCC2)nc1` [Example 120.0], for which the concentration giving a half-maximal response (EC50) stood at 0.59 µM.

A further assay deals with Heart failure rat model (MI Rat Model). Briefly: In vivo heart failure (MI) rat model, cardiac contractility. To be noted: heart failure rats in vivo, acute settings, with ACE inhibitor captopril. As to the method: Based on the ex vivo findings in isolated heart assay, APJ agonists were dosed in vivo to investigate the translation of cardiac contractility in in vivo settings. Male Lewis rats (Charles River, USA) at 2-3 months of age were used for the study. Heart failure was induced by permanent ligation of the left descending coronary artery which results in injury to the heart with an ejection fraction of <35%. APJ agonists were administered dose dependently acutely for a period of 30 min. Administration of example compounds lead to an increase in cardiac contractility as measured by dP/dtmax (derivative of left ventricular pressure) (Table 29).
Regarding `C[C@H](CS)C(=O)N1CCC[C@H]1C(=O)O` [Captopril, captopril], the “improvement in contractility or ejection fraction” value was “does not show a marked improvement in contractility or ejection fraction”.
